Experimental data reported in patent US20240109914A1, “IMIDAZOTHIAZOLE COMPOUNDS AND ANALOGS THEREOF AND METHODS FOR TREATING NEMATODE INFECTIONS IN PLANTS” (The Governing Council of The University of Toronto, priority 2021, published 2024).
Like-named read-outs stand apart in the source and are kept apart here.

Legend:
M. incognita J2 larvae = experiment: Meloidogyne incognita in vitro larval mobility assay; type: in vivo; conditions: 45 μM, 4 days; for Replicate 1 z-score / Replicate 2 z-score: z-score vs untreated DMSO wells; for pest or weed control at 45 µM: Meloidogyne incognita, 96 h
Procedure, shortened: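 Infective J2 juveniles of M. incognita Race 1, about 35 per well, were exposed to compound at 45 μM in deionized water with 0.5% DMSO for 4 days at 25° C without shaking. Immobile worms were counted as % of total, averaged over two replicates. A z-score against DMSO control wells was also computed, with z > 1.645 in both replicates marking a hit.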

tomato plants = experiment: Root mass of tomato plants in the soil infectivity assay; conditions: 45 μM in soil, 8 weeks
Description: For the infectivity assays, 90 grams of soil (1:1 sand:loam mix) was added to each cell of several 6-cell plastic garden packs. The soil was drenched with 18 mL of deionized water containing dissolved test compound or DMSO alone. 2,500 infective J2 juveniles were then added to the soil in 2 mL of deionized water, for a total water volume of 20 mL. […] The DMSO concentration varied from 0.1% to 0.8% (v/v) depending on the stock concentration of the test compound. The highest DMSO concentration was used as the DMSO control. The J2s were incubated in the soil and chemical for 24 hours, after which two- to three-week old tomato seedlings were transplanted into the soil (one plant per cell). Two replicates were performed for each chemical treatment, and four replicates were done for the DMSO controls. The whole experiment was replicated twice, in two different batches on two different days, for a total of four replicates for each test compound treatment, and eight replicates for the DMSO controls. Inoculated plants were grown for 8 weeks in a greenhouse, as described^47, under long-day conditions (16-h photoperiod) with 26/18° C. day/night temperatures. After 8 weeks, the plants were destructively harvested. The tops were removed and discarded, and roots were gently washed with water to remove adhering soil. Eggs were extracted by placing rinsed roots in 0.6% sodium hypochlorite and agitating at 300 rpm for 3 min. Roots were then rinsed over nested 250—and 25.4-μm sieves, with eggs collected from the latter and suspended in water. Roots were dried in a 65° C. oven for at least 24 hours, after which dry roots were weighed. The number of eggs from each plant root was counted on a dissection microscope using a haemocytometer, and the number of eggs per milligram of root was calculated by dividing the total egg number by the mass of the dried root material. An average was taken across the replicates performed on the same day, and then normalized to the DMSO control average. […] An average percent effectiveness value was then calculated across the two different batches carried out on different days.

C. elegans = C. elegans dose-response (viability, minimum lethal concentration); type: in vivo, Caenorhabditis elegans
Description: Forty microliters of an HB101 E. coli bacterial suspension in liquid NGM (nematode growth media—see ref. 42 for the recipe) was added to each well of a 96-well flat-bottom culture plate, after which approximately 25 synchronized L1 worms, in 10 μl of M9 buffer (see ref. 43 for the recipe), were added to each well. The synchronized L1 worms were obtained from an embryo preparation performed the previous day (see ref. 43 for the protocol). For the L1 assays, 0.5 μl of test compound solution (or DMSO alone) was immediately added to the wells using a multichannel pipette; the final DMSO concentration is 1% (v/v). The worms were incubated for 3 days at 20° C. and the number of viable animals was counted.
At least three biological replicates were performed for each dose-response assay. For each biological replicate, two technical replicates were performed and the numbers of viable animals for each technical replicate were combined (i.e. ˜ 50 worms assayed per concentration). The number of viable worms at each concentration was divided by the corresponding DMSO control value to give the “relative viability” for each concentration. The “relative viability” values were then averaged across the biological replicates. Minimum lethal concentration was defined as the lowest concentration at which at least 20% of worms die.

M. chitwoodi J2 larvae = experiment: Meloidogyne chitwoodi in vitro larval mobility assay; type: in vivo; conditions: 2 days, average of three replicates; for pest or weed control at 45 µM: Meloidogyne chitwoodi, 48 h, read-out: % Immobile
Description: M. chitwoodi race 1 (the strain commonly found in the pacific northwest of the United States) was used for all experiments, and was maintained on tomato plants (Solanum lycopersicum ‘Rutgers’) as previously described^47. The microwell dose-response experiments were carried out similarly to previously described protocols^44,46. […] The chemicals were tested at 45 μM, and the final concentration of DMSO in each well was 0.5% (v/v). The wells were covered with a plastic adhesive strip, and the lids of the plates were sealed with parafilm. The plates were incubated at 25° C. for 2 days. The percent of worms that were immobile (% immobile) was quantified by counting the number of immobile worms after 2 days of incubation, dividing the number of immobile worms by the total number of worms in the well, and then multiplying by 100. […] The average % immobile value was calculated across the three replicates.

M. incognita = experiment: Meloidogyne incognita infectivity assay (soil, tomato roots); type: in vivo; conditions: 45 μM in soil, 8 weeks, eggs per mg root relative to DMSO control; for pest or weed control at 45 µM: Meloidogyne incognita, 1344 h, read-out: % effectiveness at inhibiting reproduction of M. incognita
From the text: An M. incognita population originally collected from grape (Vitis vinifera) in Parlier, California, was used for all experiments, and they were maintained on tomato plants (Solanum lycopersicum ‘Rutgers’) as previously described^47. Infective J2 juveniles were collected as described in ref. 47.

Zebrafish = Zebrafish dose-response experiments; type: in vivo, Danio rerio; conditions: for Zebrafish LC100: lowest concentration at which all of the fish are dead, 45, 15, 5 μM tested
Description: (§1) Zebrafish were maintained and handled under the guidance and approval of the Canadian Council on Animal Care and the Hospital for Sick Children Laboratory Animal Services. Dose-response assays were performed using zebrafish (Danio rerio) at 3 days post-fertilization. Three wild-type (TLAB) embryos were analyzed in each well of a 24-well plate containing 1 mL of E3 medium (5 mM NaCl, 0.17 mM KCl, 0.33 mM CaCl2, 0.33 mM MgSO4). Test compounds were added to each well to reach final concentrations of 45 μM, 15 μM, and 5 μM (0.5% v/v DMSO), as well as a DMSO control well. The viability of the fish was assessed after 3 days of test compound exposure using a Zeiss standard dissection microscope.

HepG2 cells = experiment: HepG2 cell proliferation assay; type: cell-based, human
Description: HepG2 cells, which are liver-derived, were counted using a haemocytometer, diluted, and seeded in […] to a final density of 5×10^4 cells/mL in 100 uL of RPMI-1640 medium supplemented with 10% heat inactivated fetal bovine serum (Gibco) and 1.2× Antibiotic-Antimycotic (Gibco). Cells were incubated at 37° C. with 5% CO2 for 24 hours. Subsequently, a 2-fold dilution series of test compound was added to cells at a final volume of 200 uL and incubated at 37° C. with 5% CO2 for 72 hours. After 72 hours, Alamar Blue (Invitrogen) was added to the Hep G2 cells at a final concentration of 0.5× and plates were incubated at 37° C. for 4 hours. Fluorescence was measured at Ex560 nm/Em590 nm and corrected for background from the medium. All assays were performed in technical triplicates and in at least two biological replicates. The IC50 value was defined as the concentration that inhibits cell proliferation by 50% of the untreated control cells.

M. hapla eggs = experiment: Meloidogyne hapla in vitro egg hatch assay; type: in vivo; conditions: 45 μM; for Number of Hatched Eggs: 8 days at room temperature, about 90 eggs per well, tested once; for Number of Hatched Eggs z-score: 8 days, z-score vs 8 untreated DMSO wells
Procedure, shortened: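 About 90 eggs per well, freed from carrot-root egg masses with 10% bleach for 4 min, were exposed in deionized water to 0.5 μL compound or DMSO. Hatched eggs were counted after 8 days at room temperature without shaking in humid conditions. Each treatment was tested once, with z-scores calculated from 8 untreated DMSO control wells.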

M. chitwoodi = experiment: Meloidogyne chitwoodi infectivity assay (soil, tomato roots); type: in vivo; conditions: 45 μM in soil, 8 weeks, egg counts relative to DMSO control
Description: M. chitwoodi race 1 (the strain commonly found in the pacific northwest of the United States) was used for all experiments, and was maintained on tomato plants (Solanum lycopersicum ‘Rutgers’) as previously described^47. The M. chitwoodi infectivity assays were performed identically to the M. incognita infectivity assays (see above), with the exception that egg counts were not normalized to the mass of the roots. Four technical replicates were performed in a single batch.

[1] = Zebrafish dose-response experiments; type: in vivo, Danio rerio; conditions: TLAB (wild-type), zebrafish (Danio rerio), in vivo; bound inferred from the tested concentrations, 3 days exposure
Description: as §1

[2] = average of the two replicates, read-out: Average % Immobile
[3] = replicate 1, read-out: Replicate 1 % Immobile
[4] = replicate 2, read-out: Replicate 2 % Immobile
[5] = Caenorhabditis elegans, 72 h, L1 worms, 3 days at 20° C., lowest concentration at which at least 20% of worms die, read-out: Minimum Lethal Concentration
[6] = Caenorhabditis elegans, 72 h, L1 worms, 3 days at 20° C., same values in ppm, read-out: Minimum Lethal Concentration (ppm)
[7] = 72 hours, Alamar Blue, cell proliferation

SMILES | Replicate 1 z-score (M. incognita J2 larvae; replicate 1) | Replicate 2 z-score (M. incognita J2 larvae; replicate 2) | pest or weed control at 45 µM (M. incognita J2 larvae; [2]) [%] | pest or weed control at 45 µM (M. incognita J2 larvae; [3]) [%] | pest or weed control at 45 µM (M. incognita J2 larvae; [4]) [%] | Normalized root mass (relative to DMSO control) (tomato plants) | minimal effective concentration (C. elegans; [5]) [µM] | minimal effective concentration (C. elegans; [6]) [µg/mL] | pest or weed control at 45 µM (M. chitwoodi J2 larvae) [%] | pest or weed control at 45 µM (M. incognita) [%] | Zebrafish LC100 (Zebrafish; 3 days exposure) [µM] | Number of Hatched Eggs (M. hapla eggs) | Number of Hatched Eggs z-score (M. hapla eggs) | % effectiveness at inhibiting reproduction of M. chitwoodi (M. chitwoodi) [%] | further results
Cc1c(-c2ccc(Br)cc2)nc2sccn12 [I-33] | [1.78] | [4.16] | 32.1 | 31.4 | 32.8 | 1.45 | 12.5 | 3.7 | 58.1 | 7.9 |  |  |  |  | 
c1ccc(-c2noc(-c3cccs3)n2)cc1 [tioxazafen, reference compound] | [14.82] | [21.99] |  |  |  | 1.09 |  |  |  |  | 15 | 1 | [4.30] |  | Average % Immobile (M. incognita J2 larvae; average of the two replicates): 100.00%; Replicate 1 % Immobile (M. incognita J2 larvae; replicate 1): 100.00%; Replicate 2 % Immobile (M. incognita J2 larvae; replicate 2): 100.00%; minimal effective concentration (C. elegans; L1 worms, 3 days at 20° C., lowest concentration at which at least 20% of worms die, read-out: Minimum Lethal Concentration): 3.125 µM; Minimum Lethal Concentration (ppm) (C. elegans; L1 worms, 3 days at 20° C., same values in ppm): 0.7 ppm; times more potent at killing C. elegans than compound I-46 (C. elegans; tioxazafen versus compound I-46, minimum lethal concentration): 32; LC50 (Zebrafish; bound inferred from the tested concentrations, 3 days exposure): ≤ 15 µM; times more potent at killing fish than compound I-46 (Zebrafish; tioxazafen versus compound I-46, zebrafish): at least 3; % Immobile (M. chitwoodi J2 larvae; 45 μM): 42.7%; % effectiveness at inhibiting reproduction of M. incognita (M. incognita): 43.7%; HepG2 IC50 (HepG2 cells; [7]): relatively inactive; IC50 (HepG2 cells; [7]): > 100 µM
CCc1ccc(-c2cn3ccsc3n2)cc1 [I-7] | [10.58] | [3.55] | 51.9 | 74.5 | 29.4 |  | 50 | 11.4 | > 75 |  |  | 1 | [4.30] | 59.3 | 
Cc1c(-c2ccc(F)cc2)nc2sccn12 [I-13] | [2.58] | [2.14] | 28.4 | 35.3 | 21.6 | 1.12 | > 100 | > 23.2 | 32.4 | 0 |  |  |  |  | 
CCc1ccc(-c2cn3cc(C)sc3n2)cc1 [I-10] |  |  |  |  |  | 1.30 | 6.25 | 1.5 |  | 18.5 |  |  |  | 63.7 | 
Clc1ccc(-c2cn3ccsc3n2)nc1 [I-46] | [10.33] | [12.18] | ≥ 75 | 73.2 | 77.1 | 1.56 | 100 | 23.6 | 56.4 | 37.7 | >45 |  |  |  | LC50 at 3 days [1]: > 45 µM; lethality to zebrafish (Zebrafish; concentrations up to 45 μM, the highest concentration tested): non-lethal; IC50 (HepG2 cells; Homo sapiens, HepG2, 72 hours, Alamar Blue, cell proliferation): > 100 µM; HepG2 IC50 (ppm) (HepG2 cells; approximate ppm equivalent of 100 μM): > 23 ppm
